From patent publication US8969516B2, “Method of hydrolysis of peptide bond” (priority 2006, dated 2015)

Assay: MALDI-TOF screening of Ni^2+ dependent hydrolysis in a combinatorial peptide library
Format: physicochemical
Settings: CH3CO-Gly-Ala-Ser-X-His-Z-Lys-Phe-Leu-NH2 library, Ni^2+ 2 mM, pH 8.2, 10 mM Tris, score=24/tm
Summary of the method: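 Ni2+ 2 mM, peptide pool 1 mM (total), 10 mM Tris pH 8.2; 37 °C and 45 °C in parallel; MS aliquots at 2/4/6/8 h; products detected visually. X: all proteinogenic residues except Asp, Glu, Cys; Z: all except Cys.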

Substance	hydrolysis score from MALDI-TOF screening (37° C.)	hydrolysis score from MALDI-TOF screening (45° C.)
Ac-GASQHYKFL-NH2 [SQHY]	3 (a score of 3 for detection at 8 hours)	4 (a score of 4 for detection at 6 hours)
Ac-GASRHAKFL-NH2 [SRHA]	3 (a score of 3 for detection at 8 hours)	6 (a score of 6 for detection at 4 hours)
Ac-GASRHDKFL-NH2 [SRHD]	0 (a score of 0 if no trace of the product of hydrolysis was seen after 8 hours of incubation)	0 (a score of 0 if no trace of the product of hydrolysis was seen after 8 hours of incubation)
Ac-GASRHEKFL-NH2 [SRHE]	0 (a score of 0 if no trace of the product of hydrolysis was seen after 8 hours of incubation)	3 (a score of 3 for detection at 8 hours)
Ac-GASRHFKFL-NH2 [SRHF]	4 (a score of 4 for detection at 6 hours)	4 (a score of 4 for detection at 6 hours)
Ac-GASRHGKFL-NH2 [SRHG]	3 (a score of 3 for detection at 8 hours)	6 (a score of 6 for detection at 4 hours)
Ac-GASRHHKFL-NH2 [SRHH]	4 (a score of 4 for detection at 6 hours)	4 (a score of 4 for detection at 6 hours)
Ac-GASRHIKFL-NH2 [SRHI]	12 (a score of 12, if it was seen to be partially hydrolysed at 2 hours)	12 (a score of 12, if it was seen to be partially hydrolysed at 2 hours)
Ac-GASRHKKFL-NH2 [SRHK]	6 (a score of 6 for detection at 4 hours)	12 (a score of 12, if it was seen to be partially hydrolysed at 2 hours)
Ac-GASRHLKFL-NH2 [SRHL]	12 (a score of 12, if it was seen to be partially hydrolysed at 2 hours)	12 (a score of 12, if it was seen to be partially hydrolysed at 2 hours)
Ac-GASRHMKFL-NH2 [SRHM]	3 (a score of 3 for detection at 8 hours)	3 (a score of 3 for detection at 8 hours)
Ac-GASRHNKFL-NH2 [SRHN]	0 (a score of 0 if no trace of the product of hydrolysis was seen after 8 hours of incubation)	0 (a score of 0 if no trace of the product of hydrolysis was seen after 8 hours of incubation)
Ac-GASRHPKFL-NH2 [SRHP]	0 (a score of 0 if no trace of the product of hydrolysis was seen after 8 hours of incubation)	0 (a score of 0 if no trace of the product of hydrolysis was seen after 8 hours of incubation)
Ac-GASRHQKFL-NH2 [SRHQ]	0 (a score of 0 if no trace of the product of hydrolysis was seen after 8 hours of incubation)	0 (a score of 0 if no trace of the product of hydrolysis was seen after 8 hours of incubation)
Ac-GASRHRKFL-NH2 [SRHR]	4 (a score of 4 for detection at 6 hours)	12 (a score of 12, if it was seen to be partially hydrolysed at 2 hours)
Ac-GASRHSKFL-NH2 [SRHS]	3 (a score of 3 for detection at 8 hours)	4 (a score of 4 for detection at 6 hours)
